Converted amounts (≈) assume the structure as drawn. Where a SMILES comes first, the peptide text is derived from it. The star is where a group is joined. Benzoyl(4-B(OH)2) = O=C(c1ccc(B(O)O)cc1)*; Acridin9yl = c1ccc2c(*)c3ccccc3nc2c1; Bz = O=C(c1ccccc1)*
Columns and labels:
Candida albicans [1] = assay: Antifungal activity against Candida albicans VT1406 in cell suspension after 24 hrs by XXT/PMS dye based assay; format: functional; conditions: VT1406, 24 h
Candida albicans [2] = assay: Antibiofilm activity against Candida albicans VT1406 after 24 hrs by XXT/PMS dye based assay; format: functional; conditions: VT1406, 24 h
Staphylococcus aureus = assay: Antimicrobial activity against Staphylococcus aureus ATCC 6538 measured on day 4 by broth microdilution method; format: functional; conditions: ATCC 6538, 96 h
Escherichia coli = assay: Antimicrobial activity against Escherichia coli C ATCC 13706 measured on day 4 by broth microdilution method; format: functional; conditions: C ATCC 13706, 96 h
[3] = test system: Mycolicibacterium smegmatis; assay: Antimicrobial activity against Mycobacterium smegmatis ATCC 607 measured on day 4 by broth microdilution method; format: functional; conditions: ATCC 607, 96 h
Candida albicans [4] = assay: Antifungal activity against Candida albicans measured on day 4 by broth microdilution method; format: functional; conditions: 96 h
Aspergillus niger = assay: Antifungal activity against Aspergillus niger measured on day 4 by broth microdilution method; format: functional; conditions: 96 h
Saccharomyces cerevisiae = assay: Induction of membrane lysis activity in Saccharomyces cerevisiae assessed as maltase release at MIC after 60 mins relative to control; format: functional
Candida albicans [5] = assay: Induction of membrane lysis in Candida albicans assessed as maltase release at MIC after 60 mins relative to control; format: functional
Erythrocyte = assay: Hemolytic activity in sheep RBC measured after 15 mins; format: ADME, cell-based, Ovis aries; conditions: 0.25 h
[6] = Safety index, ratio of EC10 for hemolytic activity in sheep RBC to MIC for Candida albicans; format: toxicity; conditions: sheep red blood cells
U-87 MG = assay: Cytotoxicity against human U87 cells assessed as decrease in cell viability at 10 uM after 24 hrs by MTT assay; format: cell-based; conditions: u-87mg atcc

MIC (Candida albicans [1]) [µg/mL]	MIC (Candida albicans [2]) [µg/mL]	MIC (Staphylococcus aureus) [µg/mL]	MIC (Escherichia coli) [µg/mL]	MIC [3] [µg/mL]	MIC (Candida albicans [4]) [µg/mL]	MIC (Aspergillus niger) [µg/mL]	Compound	Activity (Saccharomyces cerevisiae) [%]	Activity (Candida albicans [5]) [%]	EC10 (Erythrocyte) [µg/mL]	selectivity ratio [6]	Activity (U-87 MG)
		62.5 (≈ 43.5 µM)	16 (≈ 11.1 µM)	32 (≈ 22.3 µM)	4 (≈ 2.78 µM)	125 (≈ 86.9 µM)	CC(C)C[C@H](NC(=O)[C@H](CC(C)C)NC(=O)[C@H](CCCCN)NC(=O)[C@H](CCCCN)NC(=O)[C@H](CC(C)C)NC(=O)[C@H](CCCCN)NC(=O)[C@@H](N)CCCCN)C(=O)N[C@@H](CCCCN)C(=O)N[C@@H](CCCCNC(=O)c1ccc(B(O)O)cc1)C(=O)N[C@@H](Cc1ccc(O)cc1)C(=O)O (H-KKLKKLLKK(Benzoyl(4-B(OH)2))Y-OH)					
		62.5 (≈ 43.9 µM)	8 (≈ 5.62 µM)	32 (≈ 22.5 µM)	1 (≈ 0.702 µM)	125 (≈ 87.8 µM)	CC(C)C[C@H](NC(=O)[C@H](CCCCN)NC(=O)[C@H](CCCCN)NC(=O)[C@H](CCCCN)NC(=O)[C@H](CCCCN)NC(=O)[C@H](CCCCN)NC(=O)[C@H](CCCCN)NC(=O)[C@@H](N)CCCCN)C(=O)N[C@@H](CCCCNC(=O)c1ccccc1)C(=O)N[C@@H](Cc1ccc(O)cc1)C(=O)O (H-KKKKKKKLK(Bz)Y-OH)	1.8	4			
		32 (≈ 19.8 µM)	8 (≈ 4.95 µM)	32 (≈ 19.8 µM)	4 (≈ 2.48 µM)	62.5 (≈ 38.7 µM)	CC(C)C[C@H](NC(=O)[C@H](CCCCN)NC(=O)[C@H](CCCCN)NC(=O)[C@H](CCCCN)NC(=O)[C@H](CCCCN)NC(=O)[C@H](CCCCN)NC(=O)[C@@H](N)CCCCN)C(=O)N[C@@H](CCCCNC(=O)c1ccc(B(O)O)cc1)C(=O)N[C@@H](CCCCNC(=O)c1ccc(B(O)O)cc1)C(=O)N[C@@H](Cc1ccc(O)cc1)C(=O)O (H-KKKKKKLK(Benzoyl(4-B(OH)2))K(Benzoyl(4-B(OH)2))Y-OH)					
		32 (≈ 22 µM)	16 (≈ 11 µM)	32 (≈ 22 µM)	2 (≈ 1.38 µM)	125 (≈ 86 µM)	CC(C)C[C@H](NC(=O)[C@H](CCCCN)NC(=O)[C@H](CCCCN)NC(=O)[C@H](CC(C)C)NC(=O)[C@@H](N)CCCCN)C(=O)N[C@@H](CCCCN)C(=O)N[C@@H](CCCCN)C(=O)N[C@@H](CCCCN)C(=O)N[C@@H](CCCCNC(=O)c1ccc(B(O)O)cc1)C(=O)N[C@@H](Cc1ccc(O)cc1)C(=O)O (H-KLKKLKKKK(Benzoyl(4-B(OH)2))Y-OH)					

More lines, now with the values behind:

Compound	MIC (Candida albicans [1]) [µg/mL]	MIC (Candida albicans [2]) [µg/mL]	MIC (Staphylococcus aureus) [µg/mL]	MIC (Escherichia coli) [µg/mL]	MIC [3] [µg/mL]	MIC (Candida albicans [4]) [µg/mL]	MIC (Aspergillus niger) [µg/mL]	Activity (Saccharomyces cerevisiae) [%]	Activity (Candida albicans [5]) [%]	EC10 (Erythrocyte) [µg/mL]	selectivity ratio [6]	Activity (U-87 MG)
Clc1ccc(COC(Cn2ccnc2)c2ccc(Cl)cc2Cl)c(Cl)c1 (stereo not given) [MICONAZOLE]	1 (≈ 2.4 µM)	4 (≈ 9.61 µM)										
CC(C)C[C@H](NC(=O)[C@H](CCCCN)NC(=O)[C@H](CCCCN)NC(=O)[C@H](CCCCNC(=O)c1ccccc1)NC(=O)[C@H](CCCCN)NC(=O)[C@H](CCCCN)NC(=O)[C@H](CCCCNC(=O)c1ccccc1)NC(=O)[C@@H](N)CCCCN)C(=O)N[C@@H](CCCCNC(=O)c1ccc(B(O)O)cc1)C(=O)N[C@@H](Cc1ccc(O)cc1)C(=O)O (H-KK(Bz)KKK(Bz)KKLK(Benzoyl(4-B(OH)2))Y-OH)			32 (≈ 19.1 µM)	32 (≈ 19.1 µM)	62.5 (≈ 37.3 µM)	4 (≈ 2.39 µM)	125 (≈ 74.6 µM)	0.4	18			
C[C@@H]1[C@H](O)[C@@H](C)/C=C/C=C/C=C/C=C/C=C/C=C/C=C/[C@H](O[C@@H]2O[C@H](C)[C@@H](O)[C@H](N)[C@@H]2O)C[C@@H]2O[C@](O)(C[C@@H](O)C[C@@H](O)[C@H](O)CC[C@@H](O)C[C@@H](O)CC(=O)O[C@H]1C)C[C@H](O)[C@H]2C(=O)O [AMPHOTERICIN B]	0.25 (≈ 0.271 µM)	0.25 (≈ 0.271 µM)										
CC(C)C[C@H](NC(=O)[C@H](CCCCN)NC(=O)[C@H](CCCCNC(=O)c1ccc(B(O)O)cc1)NC(=O)[C@H](CCCCN)NC(=O)[C@H](CCCCN)NC(=O)[C@H](CCCCNC(=O)c1ccc(B(O)O)cc1)NC(=O)[C@H](CCCCN)NC(=O)[C@@H](N)CCCCN)C(=O)N[C@@H](CCCCNC(=O)c1ccc(B(O)O)cc1)C(=O)N[C@@H](Cc1ccc(O)cc1)C(=O)O (H-KKK(Benzoyl(4-B(OH)2))KKK(Benzoyl(4-B(OH)2))KLK(Benzoyl(4-B(OH)2))Y-OH)			62.5 (≈ 35.4 µM)	16 (≈ 9.07 µM)	62.5 (≈ 35.4 µM)	8 (≈ 4.54 µM)	125 (≈ 70.9 µM)					
CC(C)C[C@H](NC(=O)[C@H](CCCCNc1c2ccccc2nc2ccccc12)NC(=O)[C@H](CCCCN)NC(=O)[C@H](CCCCN)NC(=O)[C@H](CCCCN)NC(=O)[C@H](CCCCN)NC(=O)[C@H](CCCCN)NC(=O)[C@@H](N)CCCCN)C(=O)N[C@@H](CCCCN)C(=O)N[C@@H](Cc1ccc(O)cc1)C(=O)O (H-KKKKKKK(Acridin9yl)LKY-OH)	1 (≈ 0.668 µM)	62.5 (≈ 41.8 µM)	16 (≈ 10.7 µM)	16 (≈ 10.7 µM)	16 (≈ 10.7 µM)	1 (≈ 0.668 µM)	62.5 (≈ 41.8 µM)	0.95	1	175 (≈ 117 µM)	> 100	Non-Toxic
